US20070173493A1, “1-Oxadibenzo[e,h]azulenes for the treatment of central nervous system diseases and disorders” (Pliva-Istrazivacki Institut d.o.o., priority 2003, published 2007)

Experiments:
5-HT2C receptor = molecular target: T1, 5-HT2C receptor (Homo sapiens, UniProt P28335); assay: radioligand binding assay for 5-HT2C receptor ([3H]-mesulergine competitive binding); details: choroid plexus or recombinant 5-HT2C receptor expressed in CHO-K1 cells
T1 construct: expressed in transfected cells; host or cells: CHO-K1 (alternatively choroid plexus tissue)
T1 sequence (P28335 33-458): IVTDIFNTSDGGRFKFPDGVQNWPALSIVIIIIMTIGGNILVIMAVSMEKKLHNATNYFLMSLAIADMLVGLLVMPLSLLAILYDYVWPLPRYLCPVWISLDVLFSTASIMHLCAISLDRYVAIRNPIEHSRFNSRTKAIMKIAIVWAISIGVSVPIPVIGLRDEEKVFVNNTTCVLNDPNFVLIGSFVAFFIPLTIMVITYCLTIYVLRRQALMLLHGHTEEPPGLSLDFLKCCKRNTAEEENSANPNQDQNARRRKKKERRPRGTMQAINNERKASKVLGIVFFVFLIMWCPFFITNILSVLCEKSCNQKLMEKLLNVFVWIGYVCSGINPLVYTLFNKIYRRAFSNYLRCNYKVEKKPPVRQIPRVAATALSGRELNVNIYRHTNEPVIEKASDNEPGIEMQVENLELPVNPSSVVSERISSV
Experimental: (§1) The effect of the compounds of the present invention on the neurochemical steady state was determined by in vitro investigations such as a radionuclide-marked radioligand binding assay for 5-HT2A (Bonhaus D. W. Br. J. Pharmacol. 1995, 115:622; Saucier C. J. Neurochem. 1997, 68:1998) and 5-HT2C receptors (Wolf W. A. J. Neurochem. 1997, 69:1449), in vitro binding assay for the σ1 receptor (Thomson W. and Donn R. Arthritis Res. 2002, 4: 302-306) and by in vivo investigations in a tail suspension test (Vogel H. G. and Vogel W. H. Drug Discovery and Evaluation Pharmacological Assays, Springer 1997, 304), in amphetamine-induced hyperlocomotion in mice (Millan M. J. et al, 1998 J Pharmacol. Exp. Ther. 287: 167-186), in a forced swim test in mice (Porsolt R. D. et al. Arch. Int. Pharmacodyn. 1977, 229:327-336), in meta-chlorophenyl piperazine (m-CPP) test on rats (Drug Dev. Res. 1989, 18:119-144), and in apomorphine, tryptamine, norepinephrine (ATN) test in rats (Arch. […]
(§2) A small concentration of a radioligand having a great affinity for binding to a receptor was incubated with a tissue sample enriched with a certain receptor (1-5 mg of tissue) in a buffered medium (0.2-5 mL). […] When a binding balance was achieved, the receptors to which the radioligand was bound were separated from those to which said ligand was not bound, and the radioactivity of the receptor/radioligand complex was measured. […]

5-HT2A receptor = molecular target: T2, 5-HT2A receptor (Homo sapiens, UniProt P28223); assay: radioligand binding assay for 5-HT2A receptor ([3H]-ketanserin competitive binding); details: human cortex or recombinant 5-HT2A receptor expressed in CHO-K1 cells
T2 construct: expressed in transfected cells; host or cells: CHO-K1 (alternatively human cortex tissue)
Experimental: as §1, §2

T2 sequence (P28223 whole entry): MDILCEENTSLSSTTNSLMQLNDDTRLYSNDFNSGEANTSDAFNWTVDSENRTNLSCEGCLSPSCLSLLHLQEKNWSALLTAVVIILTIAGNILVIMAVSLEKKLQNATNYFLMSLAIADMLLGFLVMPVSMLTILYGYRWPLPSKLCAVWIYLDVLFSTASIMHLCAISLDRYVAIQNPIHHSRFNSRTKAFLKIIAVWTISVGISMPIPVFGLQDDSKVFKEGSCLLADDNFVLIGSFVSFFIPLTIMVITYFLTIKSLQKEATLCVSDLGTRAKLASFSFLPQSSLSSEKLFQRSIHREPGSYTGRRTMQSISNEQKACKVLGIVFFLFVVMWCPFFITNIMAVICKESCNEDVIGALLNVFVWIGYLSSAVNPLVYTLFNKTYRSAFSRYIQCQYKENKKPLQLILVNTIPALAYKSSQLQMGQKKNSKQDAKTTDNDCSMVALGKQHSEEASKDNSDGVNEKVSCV

## CN(C)CCOCc1cc2c(o1)-c1cc(Cl)ccc1Oc1ccccc1-2 [[2-(11-chloro-1,8-dioxa-dibenzo[e,h]azulen-2-ylmethoxy)-ethyl]-dimethyl-amine]
5-HT2C receptor; read-out: binding affinity to 5-HT2C serotonin receptor expressed as IC50 value
  IC50: < 200 nM
5-HT2C receptor; read-out: binding affinity to 5-HT2C serotonin receptor, Ki value
  Ki: < 100 nM
5-HT2A receptor; read-out: binding affinity to 5-HT2A serotonin receptor expressed as IC50 value
  IC50: < 200 nM
5-HT2A receptor; read-out: binding affinity to 5-HT2A serotonin receptor, Ki value
  Ki: < 100 nM
